Square brackets hold non-standard residues; d marks the D form. Peptide text beside a SMILES is read from it. * marks the point of attachment. Stearoyl = CCCCCCCCCCCCCCCCCC(=O)*; Palmitoyl = CCCCCCCCCCCCCCCC(=O)*; Lauroyl = CCCCCCCCCCCC(=O)*; Nle = CCCC[C@H](N)C(=O)O
How the values were obtained:
rat PrRP receptor = molecular target: T1, rat PrRP receptor (Rattus norvegicus, UniProt Q64121); assay: Competitive binding in RC-4B/C rat pituitary cells (125I-rat PrRP31); conditions: for % of PrRP31, RC-4B/C rat pituitary cells: affinity relative to PrRP31
T1 construct: host or cells: RC-4B/C rat pituitary cell line
T1 sequence (Q64121 1-370): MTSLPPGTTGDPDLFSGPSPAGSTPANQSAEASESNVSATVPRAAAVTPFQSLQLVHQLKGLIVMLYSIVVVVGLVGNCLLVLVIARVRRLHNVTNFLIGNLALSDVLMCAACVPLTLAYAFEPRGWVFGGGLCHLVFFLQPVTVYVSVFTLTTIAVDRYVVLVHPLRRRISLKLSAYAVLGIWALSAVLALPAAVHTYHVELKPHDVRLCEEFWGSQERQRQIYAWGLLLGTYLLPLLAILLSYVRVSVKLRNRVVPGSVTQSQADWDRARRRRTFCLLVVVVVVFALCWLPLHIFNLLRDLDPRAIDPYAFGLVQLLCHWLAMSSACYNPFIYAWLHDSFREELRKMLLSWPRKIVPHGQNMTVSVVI
Outline: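 Displacement of rat 125I-PrRP31 ([…]) by test analogs, 10^−11–10^−4 mol·l^−1, on whole RC-4B/C cells, 60 min RT. Bound counts measured by γ-counter in duplicate, ≥3 repeats, analyzed by nonlinear one-site binding regression.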

[1] = molecular target: T2, human PrRP receptor GPR10 (Homo sapiens, UniProt P49683); assay: Competitive binding in CHO cells transfected with human GPR10 (human 125I-PrRP31); conditions: for % of PrRP31, GPR10 human receptor transfected in CHO cells: affinity relative to PrRP31
T2 construct: host or cells: CHO cells
T2 sequence (P49683 1-370): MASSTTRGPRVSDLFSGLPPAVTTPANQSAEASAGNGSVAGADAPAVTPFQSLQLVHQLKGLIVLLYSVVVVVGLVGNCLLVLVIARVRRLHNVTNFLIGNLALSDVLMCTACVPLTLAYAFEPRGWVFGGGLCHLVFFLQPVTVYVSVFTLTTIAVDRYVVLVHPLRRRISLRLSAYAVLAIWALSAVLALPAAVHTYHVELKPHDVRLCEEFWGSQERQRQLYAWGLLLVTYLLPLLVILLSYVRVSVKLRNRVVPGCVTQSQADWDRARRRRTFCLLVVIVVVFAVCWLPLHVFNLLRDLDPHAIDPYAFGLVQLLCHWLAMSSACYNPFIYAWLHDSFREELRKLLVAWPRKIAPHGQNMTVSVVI
Outline: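 Values from one-site nonlinear regression of displacement curves: analogs (final 10^-11 to 10^-4 mol·l^-1) competed with 125I-PrRP31 (final 5×10^-11 mol·l^-1) on adherent human GPR10 CHO cells. Binding ran 1 h at room temperature, pH 7.4 buffer with NaCl, MgCl2, CaCl2, glucose, BSA; cell-bound radioactivity counted after NaOH lysis.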

C57BL/6 mice = assay: Food intake in fasted mice after SC injection; assay type: in vivo; conditions: 5 mg/kg SC, 45 min after injection
Description: NMRI mice, C57BL/6 mice, and Wistar rats (AnLab, Prague, Czech Republic) were housed in a temperature of 23° C. and a daily cycle of 12 h light and dark (light from 6:00). They were given ad libitum water and a standard chow diet that contained 25, 9 and 66% of calories of protein, fat and carbohydrate respectively. Energy content of the feed was 3.4 kcal/g (St-1, Mlýn Kocanda, Czech Republic). Db/db mice and their controls (C57BL/6 background) were obtained from Taconic (Denmark), housed under the same conditions as described above, and fed by Altromin (Taconic, Denmark). ZDF-Lepr^fa/Crl, diabetic fa/fa male rats were obtained from Charles River (France), housed under same conditions as described above, and fed with a Purina 5008 diet (IPS Product Supplies Limited, UK). All experiments followed the ethical guidelines for animal experiments and the law of the Czech Republic Nr. 246/1992.
In experiments with C57BL/6 mice or Wistar rats, food intake was measured with overnight fasted animals in individual cages. Food was withdrawn 17 hours prior to injection of lipidated analog of prolactin releasing peptide (PrRP); free access to water was maintained. The administration of either saline, PrRP, or lipidated analogs was performed by SC injection at doses of 1-10 mg/kg (which corresponded to a volume of 0.2 ml/mouse and 0.1 ml/100 g weight of rat). Fifteen minutes after the lipidated analog of prolactin releasing peptide (PrRP) administration, the mice were given pre-weighed food. The food was then weighed every 30 minutes for 5-10 hours. The administration of each dose was performed at least twice, and each group of mice consisted of at least 6 mice.

SMILES | % of PrRP31, RC-4B/C rat pituitary cells (rat PrRP receptor) [%] | % of PrRP31, GPR10 human receptor transfected in CHO cells [1] [%] | Food intake in mice % of saline-treated group (C57BL/6 mice) [%] | Ki (rat PrRP receptor; RC-4B/C cells, displacement of 125I-rat PrRP31, read-out: Ki, RC-4B/C rat pituitary cells ^25I-rat PrRP31) [nM] | Displacement of rat 125I-PrRP binding (rat PrRP receptor; RC-4B/C cells, rat PrRP receptor) | Displacement of human 125I-PrRP binding ([1]; human GPR10 receptor) | Ki ([1]; CHO cells, human 125I-PrRP31, read-out: Ki, GPR10 human receptor transfected in CHO cells) [nM]
CCCCCCCCCCCCCCCCCC(=O)N[C@@H](CO)C(=O)N[C@@H](CCCNC(=N)N)C(=O)N[C@@H](C)C(=O)N[C@@H](Cc1c[nH]cn1)C(=O)N[C@@H](CCC(N)=O)C(=O)N[C@@H](Cc1c[nH]cn1)C(=O)N[C@@H](CO)C(=O)N[C@@H](CCCC)C(=O)N[C@@H](CCC(=O)O)C(=O)N[C@H](C(=O)N[C@@H](CCCNC(=N)N)C(=O)N[C@H](C(=O)N1CCC[C@H]1C(=O)N[C@@H](CC(=O)O)C(=O)N[C@H](C(=O)N[C@@H](CC(N)=O)C(=O)N1CCC[C@H]1C(=O)N[C@@H](C)C(=O)N[C@@H](Cc1c[nH]c2ccccc12)C(=O)N[C@@H](Cc1ccc(O)cc1)C(=O)N[C@H](C(=O)NCC(=O)N[C@@H](CCCNC(=N)N)C(=O)NCC(=O)N[C@H](C(=O)N[C@@H](CCCNC(=N)N)C(=O)N1CCC[C@H]1C(=O)N[C@H](C(=O)NCC(=O)N[C@@H](CCCNC(=N)N)C(=O)N[C@@H](Cc1ccccc1)C(N)=O)C(C)C)[C@@H](C)CC)[C@@H](C)O)[C@@H](C)CC)[C@@H](C)O)[C@@H](C)O [Analog 9] (Stearoyl-SRAHQHS[Nle]ETRTPDINPAWYTGRGIRPVGRF-NH2) | 514 | 7 | 3.5 |  |  |  | 
CCCCCCCCCCCC(=O)N[C@H](C(=O)N1CCC[C@H]1C(=O)N[C@@H](CC(=O)O)C(=O)N[C@H](C(=O)N[C@@H](CC(N)=O)C(=O)N1CCC[C@H]1C(=O)N[C@@H](C)C(=O)N[C@@H](Cc1c[nH]c2ccccc12)C(=O)N[C@@H](Cc1ccc(O)cc1)C(=O)N[C@@H](C)C(=O)N[C@@H](CO)C(=O)N[C@@H](CCCNC(=N)N)C(=O)NCC(=O)N[C@H](C(=O)N[C@@H](CCCNC(=N)N)C(=O)N1CCC[C@H]1C(=O)N[C@H](C(=O)NCC(=O)N[C@@H](CCCNC(=N)N)C(=O)N[C@@H](Cc1ccccc1)C(N)=O)C(C)C)[C@@H](C)CC)[C@@H](C)CC)[C@@H](C)O [Analog 41] (Lauroyl-TPDINPAWYASRGIRPVGRF-NH2) | 822 | 161 | 85 | 0.6 ± 0.22 | nmol·l^−1 range | nmol·l^−1 range | 
CCCCCCCCCCCCCCCC(=O)NCCCC[C@H](NC(=O)[C@@H]1CCCN1C(=O)[C@H](CC(N)=O)NC(=O)[C@@H](NC(=O)[C@H](CC(=O)O)NC(=O)[C@@H]1CCCN1C(=O)[C@@H](NC(=O)[C@H](CCCNC(=N)N)NC(=O)[C@@H](NC(=O)[C@H](CCC(=O)O)NC(=O)[C@H](CCSC)NC(=O)[C@H](CO)NC(=O)[C@H](Cc1c[nH]cn1)NC(=O)[C@H](CCCNC(=N)N)NC(=O)[C@H](Cc1c[nH]cn1)NC(=O)[C@@H](NC(=O)[C@H](CCCNC(=N)N)NC(=O)[C@@H](N)CO)[C@@H](C)O)[C@@H](C)CC)[C@@H](C)O)[C@@H](C)CC)C(=O)N[C@@H](Cc1c[nH]c2ccccc12)C(=O)N[C@@H](Cc1ccc(O)cc1)C(=O)N[C@@H](C)C(=O)N[C@@H](CO)C(=O)N[C@@H](CCCNC(=N)N)C(=O)NCC(=O)N[C@H](C(=O)N[C@@H](CCCNC(=N)N)C(=O)N1CCC[C@H]1C(=O)N[C@H](C(=O)NCC(=O)N[C@@H](CCCNC(=N)N)C(=O)N[C@@H](Cc1ccccc1)C(N)=O)C(C)C)[C@@H](C)CC [Analog 51] (H-SRTHRHSMEIRTPDINPK(Palmitoyl)WYASRGIRPVGRF-NH2) |  | 54 | 20 |  |  |  | 7.24 ± 0.13

Reference: patent US10350271B2, “Lipidated peptides for lowering blood glucose” (USTAV ORGANICKE CHEMIE A BIOCHEMIE AKADEMIE VED CR, V.V.I., priority 2014, dated 2019)
